# From US20250236589A1, “THERAPEUTIC PHENETHYLAMINE COMPOSITIONS AND METHODS OF USE” (Cybin IRL Limited, priority 2022, published 2025)
# Where “and” joins values, the source holds several entries; their conditions need not be identical. Equal values may be shown once. Read-outs that look alike come from different tables or passages of the source. Marks after values point to notes of the source that are not given here.
# What was measured:
# human 5-HT2B receptor [1] = target: T1, human 5-HT2B receptor (Homo sapiens (Human), UniProt P41595); test: 5-HT2B radioligand competition binding ([3H]LSD); details: read-out: 5-HT2B, Ki; radioligand [3H]LSD
# T1 sequence (P41595 whole entry, looked up): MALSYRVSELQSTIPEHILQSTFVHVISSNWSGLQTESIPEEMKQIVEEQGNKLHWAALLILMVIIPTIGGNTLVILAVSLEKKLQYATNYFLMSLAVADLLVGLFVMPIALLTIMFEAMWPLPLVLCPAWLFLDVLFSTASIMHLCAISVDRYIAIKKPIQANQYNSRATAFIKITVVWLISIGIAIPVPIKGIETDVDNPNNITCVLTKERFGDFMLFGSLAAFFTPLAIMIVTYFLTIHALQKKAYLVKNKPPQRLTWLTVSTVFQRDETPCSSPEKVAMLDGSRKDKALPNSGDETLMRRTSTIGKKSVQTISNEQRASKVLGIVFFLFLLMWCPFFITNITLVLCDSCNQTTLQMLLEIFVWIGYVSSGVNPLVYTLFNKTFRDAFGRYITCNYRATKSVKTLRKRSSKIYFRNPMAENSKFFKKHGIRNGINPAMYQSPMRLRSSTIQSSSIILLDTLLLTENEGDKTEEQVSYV
# 5-HT2A receptor [2] = target: T2, 5-HT2A receptor (Homo sapiens (Human), UniProt P28223); test: 5-HT2A functional assay, IP1 (IPOne); assay type: cell-based
# Experimental: (§1) After incubation, cells were lysed and fluorescence acceptor and donor were added. FRET was measured after 60 min at room temperature using a microplate reader (Envision, Perkin Elmer). TRUPATH assays followed a similar workflow, except that different reagents were used, and LiCl was not included in the samples; the protocol was based on the report by Olsen, R. H. J. et al., cited above.
# mice = test: Head-twitch response (HTR) screening in mice; assay type: in vivo, mouse
# Experimental: Protocols were followed according to Canal C E, Morgan D. Head-twitch response in rodents induced by the hallucinogen 2,5-dimethoxy-4-iodoamphetamine: a comprehensive history, a re-evaluation of mechanisms, and its utility as a model. […] Mice were housed in standard laboratory cages with ad libitum access to food and water and were acclimated to the vivarium for at least one week prior to testing in a procedure room. In a typical experiment, mice were injected 3 mg/kg of test article subcutaneously. Mice were placed immediately thereafter in a clear, polycarbonate box (46×20×20 cm), and HTRs were counted at various time points after administration using hand-held tally counters. In a separate experiment, plasma and brain samples were collected at 15 and 160 minutes after administration of test compounds to measure plasma and brain concentrations. Quantification was performed using LC-MS/MS method (LLOQ, 9 nM).
# 5-HT2C receptor [3] = target: T3, 5-HT2C receptor (Homo sapiens (Human), UniProt P28335); test: 5-HT2C radioligand competition binding ([3H]mesulergine or [3H]LSD)
# T3 sequence (P28335 whole entry, looked up): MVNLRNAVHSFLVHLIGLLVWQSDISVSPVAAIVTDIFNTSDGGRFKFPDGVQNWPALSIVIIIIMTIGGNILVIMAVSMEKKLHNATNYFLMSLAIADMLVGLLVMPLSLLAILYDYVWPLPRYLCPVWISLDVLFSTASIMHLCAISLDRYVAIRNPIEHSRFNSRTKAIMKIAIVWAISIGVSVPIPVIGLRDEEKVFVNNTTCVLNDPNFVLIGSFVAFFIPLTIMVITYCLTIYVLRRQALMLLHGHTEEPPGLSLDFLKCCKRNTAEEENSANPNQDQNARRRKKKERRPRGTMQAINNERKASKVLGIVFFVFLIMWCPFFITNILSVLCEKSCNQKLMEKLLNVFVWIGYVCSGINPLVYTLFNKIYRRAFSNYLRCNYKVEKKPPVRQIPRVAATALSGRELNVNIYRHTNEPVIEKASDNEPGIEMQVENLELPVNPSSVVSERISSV
# 5-HT2C receptor [4] = target: T3, 5-HT2C receptor; test: 5-HT2C functional assay, TRUPATH (BRET); assay type: cell-based
# Experimental: (§2) 5-HT2A,2B,2C receptor-mediated Gq activation—canonical signaling pathways—[phosphoinositide hydrolysis leading to the production of inositol phosphate 1 (IP1, IPOne, Cisbio assay) or direct G-protein activation using TRUPATH technology]were measured as previously described (Porter, R. H. P., Benwell, K. R., Lamb, H., Malcolm, C. S., Allen, N. F., Revell, D. F., Adams, D. R. and Sheardown, M. J., 1999, Functional characterization of agonists at recombinant human 5-HT2a, 5HT2b and 5-HT2c receptors in CHO-K1 cells, Brit J Pharmacol 128, 13; Olsen, R. H. J., DiBerto, J. F., English, J. G. et al. TRUPATH, an open-source biosensor platform for interrogating the GPCR transducerome. […] Briefly, for the IPOne assay, for 5-HT2ARs, CHO-K1 or HEK-293 cells were incubated with test articles and 5-HT (positive control) in stimulation buffer containing LiCl. After incubation, cells were lysed and fluorescence acceptor and donor were added. FRET was measured after 60 min at room temperature using a microplate reader (Envision, Perkin Elmer). TRUPATH assays followed a similar workflow, except that different reagents were used, and LiCl was not included in the samples; the protocol was based on the report by Olsen, R. H. J. et al., cited above.
# 5-HT2A receptor [5] = target: T2, 5-HT2A receptor; test: 5-HT2A radioligand competition binding ([3H]LSD or [3H]ketanserin)
# 5-HT2A receptor [6] = target: T2, 5-HT2A receptor; test: 5-HT2A functional assay, TRUPATH (BRET); assay type: cell-based
# Experimental: as §1
# human 5-HT2B receptor [7] = target: T1, human 5-HT2B receptor; test: 5-HT2B functional assay, IP1 (IPOne); assay type: cell-based; details: IP1 assay
# Experimental: as §2
# [8] = In vitro liver microsome stability (RLM); assay type: in vitro ADME; details: rat, rat liver microsomes, 0.5 mg/mL microsomes, NADPH, read-out: RLM, t1/2
# Experimental: (§3) In vitro stability was determined in Human (HLM), Rat (RLM), Mouse (MsLM), and dog (DLM) Liver Microsomes. All liver microsomes were purchased from a commercial supplier (e.g. XenoTech). The reaction mixture, minus NADPH, was prepared as described below. The test compound was added into the reaction mixture at a final concentration of 1 μM or co-dosed with their deuterated analog(s) at 1 μM each. The control compound, testosterone, was run simultaneously with the test compound in a separate reaction. The reaction mixture (without cofactor) was equilibrated in a shaking water bath at 37° C. for 5 minutes. The reaction was initiated by the addition of the cofactor, and the mixture was incubated in a shaking water bath at 37° C. Aliquots (150 μL) were withdrawn at 0, 5, 10, 20, 30, 60, and 120 minutes. Test compound and testosterone samples were immediately combined with 150 μL of ice-cold acetonitrile (ACN) containing 0.1% formic acid and internal standard to terminate the reaction. The samples were then mixed and centrifuged to precipitate proteins. All samples were assayed by LC-MS/MS using electrospray ionization. The peak area response ratio (PARR) of analyte to internal standard at each time point was compared to the PARR at time 0 to determine the percent remaining at each time point. Half-lives were calculated using GraphPad software, fitting to a single-phase exponential decay equation.
# [9] = In vitro liver microsome stability (DLM); assay type: in vitro ADME; details: dog, dog liver microsomes, 0.5 mg/mL microsomes, NADPH, read-out: DLM, t1/2
# Experimental: as §3, with “The peak area response ratio (PARR) of analyte to internal standard at each time point was compared to the PARR at time 0 to determine the percent remaining at each time point.” left out
# [10] = In vitro liver microsome stability (MsLM); assay type: in vitro ADME; details: mouse, mouse liver microsomes, 0.5 mg/mL microsomes, NADPH, read-out: MsLM, t1/2
# Experimental: as §3, with “The peak area response ratio (PARR) of analyte to internal standard at each time point was compared to the PARR at time 0 to determine the percent remaining at each time point.” left out
# [11] = In vitro liver microsome stability (HLM); assay type: in vitro ADME; details: human, human liver microsomes, 0.5 mg/mL microsomes, NADPH, read-out: HLM, t1/2
# Experimental: as §3, with “The peak area response ratio (PARR) of analyte to internal standard at each time point was compared to the PARR at time 0 to determine the percent remaining at each time point.” left out
# [12] = Plasma and brain concentrations after dosing in mice (screening); assay type: in vivo, mouse; details: for concentration at 160 min: sc, mice, 3 mg/kg s.c.
# MAO-A = MAO-A (Homo sapiens (Human), UniProt P21397); test: Recombinant human MAO-A activity (stability); assay type: in vitro ADME; details: hrMAO 0.02 mg/mL, read-out: MAO-A, t1/2
# MAO-A, sequence (P21397 whole entry, looked up): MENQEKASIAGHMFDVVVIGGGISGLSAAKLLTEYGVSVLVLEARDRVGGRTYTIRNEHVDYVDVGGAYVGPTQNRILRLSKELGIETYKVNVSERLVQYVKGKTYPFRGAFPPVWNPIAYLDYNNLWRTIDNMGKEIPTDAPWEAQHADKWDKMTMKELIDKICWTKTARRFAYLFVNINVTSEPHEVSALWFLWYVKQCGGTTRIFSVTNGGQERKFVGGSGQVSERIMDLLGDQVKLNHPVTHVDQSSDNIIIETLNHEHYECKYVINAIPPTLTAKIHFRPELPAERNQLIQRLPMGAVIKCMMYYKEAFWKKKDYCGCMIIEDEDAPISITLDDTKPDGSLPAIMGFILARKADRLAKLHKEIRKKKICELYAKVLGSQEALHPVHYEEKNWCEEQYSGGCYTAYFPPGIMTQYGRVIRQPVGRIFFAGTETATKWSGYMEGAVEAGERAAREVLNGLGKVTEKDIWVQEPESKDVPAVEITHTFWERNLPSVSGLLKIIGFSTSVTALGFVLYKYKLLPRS
# Experimental: hrMAO-A and MAO control were purchased from XenoTech. The reaction mixture was prepared as described below. The test compound was added into the reaction mixture at a final concentration of 1 μM or co-dosed with their deuterated analog at 1 μM each. The positive control kynuramine (25 μM) was run simultaneously with the test compound in a separate reaction. The reaction mixture (without test compounds or kynuramine) was equilibrated in a shaking water bath at 37° C. for 5 minutes. The reaction was initiated by the addition of the test compound or kynuramine, and the mixture was incubated in a shaking water bath at 37° C. Aliquots (150 μL) of the test compound reaction mixture were withdrawn at 0, 5, 10, 20, 30, 60, and 120 minutes. Aliquots (150 μL) of the positive control reaction mixture were withdrawn at 0 and 30 minutes. Test compound(s) and kynuramine samples were immediately combined with 150 μL of ice-cold 100% acetonitrile containing 0.1% formic acid and internal standard (0.2 μM metoprolol) to terminate the reaction. The samples were then mixed and centrifuged to precipitate proteins. All samples were assayed by LC-MS/MS. The peak area response ratio (PARR) of analyte to internal standard at each time point was compared to the PARR at time 0 to determine the percent remaining at each time point. Half-lives were calculated using GraphPad software, fitting to a single-phase exponential decay equation.
# [13] = read-out: 5-HT2C, Ki, radioligand [3H]mesulergine
# [14] = read-out: 5-HT2A, Ki, radioligand [3H]ketanserin
compound,measurement,setting,value
"COc1cc(SC(F)(F)F)c(OC)cc1CCNCC1CC1 [Compound V-1, N-(cyclopropylmethyl)-2-(2,5-dimethoxy-4-((trifluoromethyl)thio)phenyl)ethan-1-amine]",Ki,human 5-HT2B receptor [1],79 nM
same,5-HT2AR agonist activity (in words),5-HT2A receptor [2],potent 5-HT2AR agonist
same,EC50,"5-HT2A receptor [2]; 5-HT2A EC50, IP1 assay",35 nM and 35.7 nM
same,Emax,"5-HT2A receptor [2]; IP1 assay, relative to 5-HT",31%
same,HTR (in words),mice; 3 mg/kg,elicited an HTR to a much lower extent than DOI
same,HTR 15-25 min,mice; calculated using 0-30 min,3 ####
same,HTR 160-170 min,"mice; mice, 3 mg/kg s.c.",4.42
same,Ki,5-HT2C receptor [3],74.9 nM
same,Ki,"5-HT2C receptor [3]; read-out: 5-HT2C, Ki, [3H]LSD, high-affinity active state",0.98 nM
same,EC50,5-HT2C receptor [4],46 nM
same,Emax,5-HT2C receptor [4]; relative to 5-HT,92%
same,Ki,"5-HT2A receptor [5]; read-out: 5-HT2A, Ki, radioligand [3H]LSD",10 nM
same,Ki,5-HT2A receptor [5]; read-out: 5-HT2AR affinity (Ki),10 nM
same,EC50,5-HT2A receptor [6],28 nM
same,Emax,"5-HT2A receptor [6]; TRUPATH, relative to 5-HT",75%
same,Emax,human 5-HT2B receptor [7]; constrained to 100%,100%
same,EC50,human 5-HT2B receptor [7]; read-out: 5-HT2B EC50,> 1000 nM
"[2H]C([2H])([2H])Oc1cc(SC(F)(F)F)c(OC([2H])([2H])[2H])cc1CCN [II-10, 2-(2,5-bis(methoxy-d3)-4-((trifluoromethyl)thio)phenyl)ethan-1-amine]",5-HT2AR agonist activity (in words),5-HT2A receptor [2],pronounced agonists
same,half-life at 1 μM,[8],0.988 h
same,half-life at 1 μM,[9],> 2 h
same,half-life at 1 μM,[10],> 2 h
same,HTR 15-25 min,mice; measured 0-15 min,25.6 ##
same,half-life at 1 μM,[11],> 2 h
same,"brain/plasma ratio, 160 min",[12]; 160 min after 3 mg/kg,24.4
same,concentration at 160 min,"[12]; mouse, brain, read-out: Brain, 160 min",8.8 µM
same,Kp at 160 min,"[12]; mouse, brain/plasma, subcutaneous, 3 mg/kg, 160 min after 3 mg/kg, read-out: brain/plasma ratio, 160 min",24 to 32
same,concentration at 160 min,"[12]; mouse, plasma, read-out: Plasma, 160 min",0.36 µM
same,half-life at 1 μM,MAO-A,> 2 h
same,Ki,5-HT2A receptor [5],35 nM
same,affinity at 5-HT2A receptors (in words),5-HT2A receptor [5],superior affinity
same,Ki,"5-HT2A receptor [5]; read-out: 5-HT2A, Ki, [3H]ketanserin, high-affinity active state",0.54 nM
"[2H]C([2H])(N)Cc1cc(OC)c(C(F)(F)F)cc1OC [IV-3, 2-(2,5-dimethoxy-4-(trifluoromethyl)phenyl)ethan-1,1-d2-1-amine]",half-life at 1 μM,[8],0.185 h
same,Ki,5-HT2C receptor [3]; [13],23 nM
same,half-life at 1 μM,MAO-A,1.7 h
same,Ki,5-HT2A receptor [5]; [14],42 nM
"COc1cc(C(F)(F)F)c(OC)cc1CCN [Reference Compound 4, 2-(2,5-dimethoxy-4-(trifluoromethyl)phenyl)ethan-1-amine, reference compound]",half-life at 1 μM,[8],0.128 h
same,Ki,5-HT2C receptor [3]; [13],35 nM
same,half-life at 1 μM,MAO-A,1.46 h
same,Ki,5-HT2A receptor [5]; [14],25 nM
